The text below walks through data of US11596639B2, “Substituted indole Mcl-1 inhibitors” (Vanderbilt University, priority 2016, dated 2023).

Molecules are shown by their SMILES. Where two headings read alike, the source gives them in different places. Some results are limits rather than exact numbers.

Test [1] concerns H929 human cancer cell lines. The test can be described thus: Cellular viability / proliferation (Cell TiterGlo, 72 h). Format: cell-based. The method, boiled down: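 Cells were seeded at 1,000 cells/well in medium with 10% FBS and dosed 24 h later with a 2-fold serial dilution of compound (top concentration 50 μM, final DMSO <1%).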
In another test the target is Mcl-1 (Homo sapiens (Human), UniProt Q07820). The test can be described thus: TR-FRET binding assay, FITC-Bak peptide and MBP-tagged Mcl-1. As to conditions: read-out: Ki for Inhibition of Mcl-1 by TR-FRET assay. How it is done:
Compounds are diluted in DMSO in a 16-point, semilog serial dilution scheme. […] The plate was mixed and incubated for 3 hours at room temperature. […] TR-FRET signal is plotted and IC50 and Ki values are calculated in the same manner as the fluorescence polarization anisotropy based competition assays.
In general terms: Time-resolved FRET reads energy transfer from a long-lived donor to a nearby acceptor.

[2] abbreviates: Homo sapiens, NCI-H929, 72 h, read-out: GI50 on cellular proliferation of H929 human cancer cell lines, H929 cells, 72 h, Cell TiterGlo, 10% FBS.

Sequence of Mcl-1 (Q07820 172-327): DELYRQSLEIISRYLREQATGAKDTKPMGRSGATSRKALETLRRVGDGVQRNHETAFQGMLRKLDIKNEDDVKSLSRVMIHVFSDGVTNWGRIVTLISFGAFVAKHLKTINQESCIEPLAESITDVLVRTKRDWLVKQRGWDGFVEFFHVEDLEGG

A word on the Ki: it is a dissociation constant, usually derived from enzyme kinetics or from competition with a known ligand. On to `COCCn1cc(C(=O)O)c2c(OC)ccc(N3C[C@@H](C)n4c(c(CCCOc5cc(C)c(Cl)c(C)c5)c5ccc(Cl)c(-c6c(C)nn(C)c6C)c54)C3=O)c21` [Example 625, (R)-7-(7-chloro-10-(3-(4-chloro-3,5-dimethylphenoxy)propyl)-4-methyl-1-oxo-6-(1,3,5-trimethyl-1H-pyrazol-4-yl)-3,4-dihydropyrazino[1,2-a]indol-2(1H)-yl)-4-methoxy-1-(2-methoxyethyl)-1H-indole-3-carboxylic acid], for which, in test [1] (setting [2]), the GI50 was determined as 420 nM. Further, the Ki at Mcl-1 is 0.22 nM.

For `Cc1cc(OCCCc2c3n(c4c(-c5c(C)nn(C)c5C)c(Cl)ccc24)[C@H](C)CN(c2cc(C(=O)N4CCN(C)CC4)cc4cc(C(=O)O)n(C)c24)C3=O)cc(C)c1Cl` [Example 626, (R)-7-(7-chloro-10-(3-(4-chloro-3,5-dimethylphenoxy)propyl)-4-methyl-1-oxo-6-(1,3,5-trimethyl-1H-pyrazol-4-yl)-3,4-dihydropyrazino[1,2-a]indol-2(1H)-yl)-1-methyl-5-(4-methylpiperazine-1-carbonyl)-1H-indole-2-carboxylic acid], the GI50 in test [1] (setting [2]) came out at 4400 nM. For the same compound, the Ki at Mcl-1 was less than 0.2 nM.

In the case of `CCc1ccnc(Cn2c(C(=O)O)cc3cc(C)cc(N4C[C@@H](C)n5c(c(CCCOc6cc(C)c(Cl)c(C)c6)c6ccc(Cl)c(-c7c(C)nn(C)c7C)c65)C4=O)c32)c1` [Example 627, (R)-7-(7-chloro-10-(3-(4-chloro-3,5-dimethylphenoxy)propyl)-4-methyl-1-oxo-6-(1,3,5-trimethyl-1H-pyrazol-4-yl)-3,4-dihydropyrazino[1,2-a]indol-2(1H)-yl)-1-((4-ethylpyridin-2-yl)methyl)-5-methyl-1H-indole-2-carboxylic acid], in test [1] (setting [2]), the GI50 was less than 200 nM. The Ki at Mcl-1 is less than 0.2 nM.

Turning to `Cc1cc(OCCCc2c3n(c4c(-c5c(C)nn(C)c5C)c(Cl)ccc24)[C@H](C)CN(c2cc(CN4CCN(C)C(=O)C4)cc4cc(C(=O)O)n(C)c24)C3=O)cc(C)c1Cl` [Example 628, (R)-7-(7-chloro-10-(3-(4-chloro-3,5-dimethylphenoxy)propyl)-4-methyl-1-oxo-6-(1,3,5-trimethyl-1H-pyrazol-4-yl)-3,4-dihydropyrazino[1,2-a]indol-2(1H)-yl)-1-methyl-5-((4-methyl-3-oxopiperazin-1-yl)methyl)-1H-indole-2-carboxylic acid], the GI50 in test [1] (setting [2]) came to 440 nM. Besides, the Ki at Mcl-1 was less than 0.2 nM.

With `CC(=O)N1CCN(C(=O)c2cc(N3C[C@@H](C)n4c(c(CCCOc5cc(C)c(Cl)c(C)c5)c5ccc(Cl)c(-c6c(C)nn(C)c6C)c54)C3=O)c3c(c2)cc(C(=O)O)n3C)CC1` [Example 629, (R)-5-(4-acetylpiperazine-1-carbonyl)-7-(7-chloro-10-(3-(4-chloro-3,5-dimethylphenoxy)propyl)-4-methyl-1-oxo-6-(1,3,5-trimethyl-1H-pyrazol-4-yl)-3,4-dihydropyrazino[1,2-a]indol-2(1H)-yl)-1-methyl-1H-indole-2-carboxylic acid], in test [1] (setting [2]), the GI50 is 560 nM. The Ki on Mcl-1 is less than 0.2 nM.

Regarding `Cc1cc(OCCCc2c3n(c4c(-c5c(C)nn(C)c5C)c(Cl)ccc24)[C@H](C)CN(c2cc(C(=O)N4CCN(C)C(=O)C4)cc4cc(C(=O)O)n(C)c24)C3=O)cc(C)c1Cl` [Example 630, (R)-7-(7-chloro-10-(3-(4-chloro-3,5-dimethylphenoxy)propyl)-4-methyl-1-oxo-6-(1,3,5-trimethyl-1H-pyrazol-4-yl)-3,4-dihydropyrazino[1,2-a]indol-2(1H)-yl)-1-methyl-5-(4-methyl-3-oxopiperazine-1-carbonyl)-1H-indole-2-carboxylic acid], the GI50 in test [1] (setting [2]) came out at 9000 nM. Moreover, the Ki at Mcl-1 was less than 0.2 nM.

For `COCCOCCOc1cc(N2C[C@@H](C)n3c(c(CCCOc4cc(C)c(Cl)c(C)c4)c4ccc(Cl)c(-c5c(C)ncnc5C)c43)C2=O)c2c(c1)cc(C(=O)O)n2C` [Example 631, (R)-7-(7-chloro-10-(3-(4-chloro-3,5-dimethylphenoxy)propyl)-6-(4,6-dimethylpyrimidin-5-yl)-4-methyl-1-oxo-3,4-dihydropyrazino[1,2-a]indol-2(1H)-yl)-5-(2-(2-methoxyethoxy)ethoxy)-1-methyl-1H-indole-2-carboxylic acid], in test [1] (setting [2]), the GI50 was 300 nM. Also, the Ki on Mcl-1 is less than 0.2 nM.

For the compound `COCCOc1ccc(N2C[C@@H](C)n3c(c(CCCOc4cc(C)c(Cl)c(C)c4)c4ccc(Cl)c(-c5c(C)nn(C)c5C)c43)C2=O)c2c1cc(C(=O)O)n2Cc1cc(C)ccn1` [Example 632, (R)-7-(7-chloro-10-(3-(4-chloro-3,5-dimethylphenoxy)propyl)-4-methyl-1-oxo-6-(1,3,5-trimethyl-1H-pyrazol-4-yl)-3,4-dihydropyrazino[1,2-a]indol-2(1H)-yl)-4-(2-methoxyethoxy)-1-((4-methylpyridin-2-yl)methyl)-1H-indole-2-carboxylic acid], the GI50 in test [1] (setting [2]) is 220 nM. The Ki at Mcl-1 was less than 0.2 nM.

Turning to `COCCOCCOc1cc(N2C[C@@H](C)n3c(c(CCCOc4cc(C)c(Cl)c(C)c4)c4ccc(Cl)c(-c5c(C)nn(C)c5C)c43)C2=O)c2c(c1)cc(C(=O)O)n2C` [Example 633, (R)-7-(7-chloro-10-(3-(4-chloro-3,5-dimethylphenoxy)propyl)-4-methyl-1-oxo-6-(1,3,5-trimethyl-1H-pyrazol-4-yl)-3,4-dihydropyrazino[1,2-a]indol-2(1H)-yl)-5-(2-(2-methoxyethoxy)ethoxy)-1-methyl-1H-indole-2-carboxylic acid], in test [1] (H929 cells, 72 h, Cell TiterGlo, 10% FBS, read-out: GI50 on cellular proliferation of H929 human cancer cell lines), the GI50 was less than 200 nM. The Ki at Mcl-1 was less than 0.2 nM.

Regarding `COCCOCCn1c(C(=O)O)cc2cccc(N3C[C@@H](C)n4c(c(CCCOc5cc(C)c(Cl)c(C)c5)c5ccc(Cl)c(-c6c(C)nn(C)c6C)c54)C3=O)c21` [Example 634, (R)-7-(7-chloro-10-(3-(4-chloro-3,5-dimethylphenoxy)propyl)-4-methyl-1-oxo-6-(1,3,5-trimethyl-1H-pyrazol-4-yl)-3,4-dihydropyrazino[1,2-a]indol-2(1H)-yl)-1-(2-(2-methoxyethoxy)ethyl)-1H-indole-2-carboxylic acid], in test [1] (setting [2]), the GI50 was 280 nM. In addition, the Ki at Mcl-1 was less than 0.2 nM.

Consider `COCCOCCn1c(C(=O)O)cc2cc(C)cc(N3C[C@@H](C)n4c(c(CCCOc5cc(C)c(Cl)c(C)c5)c5ccc(Cl)c(-c6c(C)ncnc6C)c54)C3=O)c21` [Example 635, (R)-7-(7-chloro-10-(3-(4-chloro-3,5-dimethylphenoxy)propyl)-6-(4,6-dimethylpyrimidin-5-yl)-4-methyl-1-oxo-3,4-dihydropyrazino[1,2-a]indol-2(1H)-yl)-1-(2-(2-methoxyethoxy)ethyl)-5-methyl-1H-indole-2-carboxylic acid], for which, in test [1] (setting [2]), the GI50 is less than 200 nM. At Mcl-1, the Ki is less than 0.2 nM.

As for `Cc1cc(OCCCc2c3n(c4c(-c5c(C)ncnc5C)c(Cl)ccc24)[C@H](C)CN(c2cn(C)c4ncc(C(=O)O)cc24)C3=O)cc(C)c1Cl` [Example 636, (R)-3-(7-chloro-10-(3-(4-chloro-3,5-dimethylphenoxy)propyl)-6-(4,6-dimethylpyrimidin-5-yl)-4-methyl-1-oxo-3,4-dihydropyrazino[1,2-a]indol-2(1H)-yl)-1-methyl-1H-pyrrolo[2,3-b]pyridine-5-carboxylic acid], in test [1] (setting [2]), the GI50 was 980 nM. The Ki at Mcl-1 was 0.5 nM.

In the case of `Cc1cc(OCCCc2c3n(c4c(-c5c(C)nn(C)c5C)c(Cl)ccc24)[C@H](C)CN(c2cn(CC(=O)N(C)C)c4ccc(-c5ncccn5)cc24)C3=O)cc(C)c1Cl` [Example 637, (R)-2-(3-(7-Chloro-10-(3-(4-chloro-3,5-dimethylphenoxy)propyl)-4-methyl-1-oxo-6-(1,3,5-trimethyl-1H-pyrazol-4-yl)-3,4-dihydropyrazino[1,2-a]indol-2(1H)-yl)-5-(pyrimidin-2-yl)-1H-indol-1-yl)-N,N-dimethylacetamide], the GI50 in test [1] (setting [2]) turned out to be 530 nM. For the same compound, the Ki on Mcl-1 is 1.3 nM.

`Cc1cc(OCCCc2c3n(c4c(-c5c(C)nn(C)c5C)c(Cl)ccc24)[C@H](C)CN(c2cn(CC(=O)N(C)C)c4ccc(-c5ncn(Cc6ccccn6)n5)cc24)C3=O)cc(C)c1Cl` [Example 638, (R)-2-(3-(7-Chloro-10-(3-(4-chloro-3,5-dimethylphenoxy)propyl)-4-methyl-1-oxo-6-(1,3,5-trimethyl-1H-pyrazol-4-yl)-3,4-dihydropyrazino[1,2-a]indol-2(1H)-yl)-5-(1-(pyridin-2-ylmethyl)-1H-1,2,4-triazol-3-yl)-1H-indol-1-yl)-N,N-dimethylacetamide]: the GI50 in test [1] (setting [2]) was 600 nM. Also, the Ki on Mcl-1 turned out to be 1.7 nM.

`Cc1cccc(Cn2cnc(-c3ccc4c(c3)c(N3C[C@@H](C)n5c(c(CCCOc6cc(C)c(Cl)c(C)c6)c6ccc(Cl)c(-c7c(C)nn(C)c7C)c65)C3=O)cn4CC(=O)N(C)C)n2)n1` [Example 639, (R)-2-(3-(7-Chloro-10-(3-(4-chloro-3,5-dimethylphenoxy)propyl)-4-methyl-1-oxo-6-(1,3,5-trimethyl-1H-pyrazol-4-yl)-3,4-dihydropyrazino[1,2-a]indol-2(1H)-yl)-5-(1-((6-methylpyridin-2-yl)methyl)-1H-1,2,4-triazol-3-yl)-1H-indol-1-yl)-N,N-dimethylacetamide]: the GI50 in test [1] (setting [2]) stood at 900 nM. In addition, at Mcl-1, the Ki turned out to be 4.2 nM.

Take `Cc1cc(OCCCc2c3n(c4c(-c5c(C)ncnc5C)c(Cl)ccc24)[C@H](C)CN(c2cn(C)c4cnc(C(=O)O)cc24)C3=O)cc(C)c1Cl` [Example 640, (R)-3-(7-chloro-10-(3-(4-chloro-3,5-dimethylphenoxy)propyl)-6-(4,6-dimethylpyrimidin-5-yl)-4-methyl-1-oxo-3,4-dihydropyrazino[1,2-a]indol-2(1H)-yl)-1-methyl-1H-pyrrolo[2,3-c]pyridine-5-carboxylic acid]: in test [1] (setting [2]), the GI50 was 8100 nM. In addition, the Ki on Mcl-1 is less than 0.2 nM.
